Results on 54 compounds are retold here after patent US11312721B2 (priority 2015, dated 2022).

One may read the pKi as −log10 of the Ki, conventionally taken in molar units. The low end stands for a high Ki, the high end for a low Ki.

One test addresses T1, GABAA receptors (α5β2γ2) (Homo sapiens, UniProt P18507+P31644).
T1 construct: expressed in transfected cells
The experiment in a line: Positive allosteric modulator activity: potentiation of EC20 GABA current in oocytes. The format is cell-based. The settings on record: read-out: GABA α5 functional potentiation. Here is the method:
On day 1, 1 ng/32 nL of GABAA α5β2γ2 cDNA was injected into one oocyte. Test starts on day 2. The cDNA injected to the oocytes was a mix of alpha, beta and gamma, their ratio is 1:1:10 (by weight) and the total weight of the mixed 3 subunits to be injected in one oocyte was 1 ng in 32 nl volume. The injected oocytes can also be tested on day 3. In such case, the cDNA amount injected to the oocytes should be reduced by 20%.
1). 8 oocytes were placed in 8 chambers of OpusXpress and superfused with Modified Barth's Saline (MBS) at 3 mL/min. Glass electrodes back-filled with 3M KCl (0.5-3 megaohms) were used.
1). Repeat the above steps 1), 2) and 3) in the control test.
2). […] Divide Itest by IGABA to obtain potentiation (%).
3). Discard all tested oocytes, new oocytes were used and the above steps 1) and 2) were repeated to test second concentration of the same compound. Each oocyte was used for only one concentration test for a single test compound. The steps were repeated for other test compounds.

Test [1] deals with T2, α5β3γ2 GABAA receptors (Ltk cells) (Homo sapiens, UniProt P18507+P31644).
T2 construct: membranes
Description: Binding activity on GABAAR: inhibition of [3H]Ro15-1788 binding. Here is the method: Tissue culture and Membrane Preparation: The binding was performed on Ltk cells stably expressing GABAA receptors: α1β1γ2, α2β3γ2, α3β3γ2 and α5β3γ2 (provided by Merck Co., NJ, USA). Cells were seeded in 100 mm culture plates in DMEM/F12 medium containing 10% serum and antibiotics in 5% CO2 and allowed to grow for 1-2 days. GABAAR expression was then induced by dexamethasone as follows: 0.5 μM for 1 day for α5 containing and 2 μM for 3 days for α1, α2 and α3 containing GABAARs. After induction, cells were collected by scraping into Dulbecco's Phosphate buffered saline (DPBS, pH 7.4, Invitrogen, Carlsbad, Calif., USA) and centrifuged at 150×g for 10 min. The pellet was washed twice by re-suspension and centrifugation. The cell pellets from at least 5 different preps were combined, suspended in the binding assay buffer (50 mM KH2PO4; 1 mM EDTA; 0.2 M KCl, pH 7.4) and membranes prepared by sonication (3-5 times, 30 sec) using Branson Sonifier 150 (G. Heinmann, Germany). Protein content was determined using BCA assay (Bio-Rad Labs, Reinach, Switzerland) with Bovine Serum Albumin (Sigma Aldrich, St. Louis, Mo., USA) as the standard. Aliquots were prepared and stored at −20° C. for further use in binding assays.
Ligand Binding: Saturation binding curves were obtained by incubating membranes with increasing concentrations (0.01-8 nM) of [^3H]Ro15-1788 (Flumazepil, 75-85 Ci/mmol, PerkinElmer, MA, USA), with nonspecific binding measured in the presence of 10 μM diazepam.
All binding assays were performed for 1 h at 4° C. in assay buffer. The total assay volume was 0.5 ml containing 0.2 mg/ml protein for α5 and 0.4 mg/ml for α1, α2, and α3 containing GABAAR membranes. Incubations were terminated by filtration through GF/B filters using a 24-Cell Harvestor (Brandel, Gaithersburg, Md., USA) followed by 3 washes with ice-cold assay buffer. Filters were transferred to scintillation vials, 5 ml scintillation liquid added, vortex-mixed and kept in dark. Next day, radioactivity was obtained using a scintillation counter (Beckman Coulter, Brea, Calif., USA). All assays were performed in triplicate.
Data Analyses: Saturation and inhibition curves were obtained using GraphPad Prism software (GraphPad Software, Inc., CA, USA).

pKi: −log10 of the molar value. Where only a bound is given, the exact number is not on record here.

T2 sequence (P31644 32-462): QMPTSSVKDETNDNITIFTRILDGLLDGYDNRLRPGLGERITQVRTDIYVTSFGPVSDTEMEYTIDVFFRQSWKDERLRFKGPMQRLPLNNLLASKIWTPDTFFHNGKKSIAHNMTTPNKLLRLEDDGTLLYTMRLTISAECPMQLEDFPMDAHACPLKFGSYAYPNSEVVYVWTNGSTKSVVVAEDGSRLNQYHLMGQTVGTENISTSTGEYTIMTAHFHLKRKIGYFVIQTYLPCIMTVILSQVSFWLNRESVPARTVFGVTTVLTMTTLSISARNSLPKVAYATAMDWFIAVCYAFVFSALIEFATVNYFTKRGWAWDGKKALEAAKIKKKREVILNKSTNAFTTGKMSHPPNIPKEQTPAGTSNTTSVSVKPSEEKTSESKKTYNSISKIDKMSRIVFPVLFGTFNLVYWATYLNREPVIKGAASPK
T2 sequence (P28472 26-473 partner): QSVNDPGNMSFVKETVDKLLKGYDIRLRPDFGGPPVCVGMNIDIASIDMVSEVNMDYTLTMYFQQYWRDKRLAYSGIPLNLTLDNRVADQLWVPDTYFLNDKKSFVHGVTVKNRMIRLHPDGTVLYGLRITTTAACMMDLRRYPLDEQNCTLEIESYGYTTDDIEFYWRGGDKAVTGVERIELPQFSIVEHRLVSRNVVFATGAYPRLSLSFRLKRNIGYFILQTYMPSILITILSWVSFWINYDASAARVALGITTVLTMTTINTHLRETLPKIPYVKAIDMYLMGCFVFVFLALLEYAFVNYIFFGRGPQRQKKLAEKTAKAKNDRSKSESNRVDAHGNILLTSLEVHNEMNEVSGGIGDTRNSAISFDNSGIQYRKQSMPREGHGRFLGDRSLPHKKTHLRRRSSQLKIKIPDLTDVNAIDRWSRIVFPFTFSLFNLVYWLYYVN
T2 sequence (P18507 40-475): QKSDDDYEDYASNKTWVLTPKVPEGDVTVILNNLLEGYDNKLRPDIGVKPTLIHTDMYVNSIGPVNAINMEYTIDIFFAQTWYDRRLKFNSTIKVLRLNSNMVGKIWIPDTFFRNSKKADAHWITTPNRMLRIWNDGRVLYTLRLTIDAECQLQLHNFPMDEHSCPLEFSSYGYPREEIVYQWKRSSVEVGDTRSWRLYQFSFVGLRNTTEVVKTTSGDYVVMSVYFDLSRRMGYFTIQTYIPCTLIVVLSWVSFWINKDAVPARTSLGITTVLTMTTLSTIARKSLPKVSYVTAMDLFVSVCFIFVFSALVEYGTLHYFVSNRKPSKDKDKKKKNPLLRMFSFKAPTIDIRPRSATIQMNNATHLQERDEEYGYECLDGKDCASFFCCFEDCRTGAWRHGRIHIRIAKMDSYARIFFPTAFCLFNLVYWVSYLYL
T1 sequence (P31644 32-462): as the sequence (P31644 32-462) above
T1 sequence (P47870 25-512 partner limits assumed): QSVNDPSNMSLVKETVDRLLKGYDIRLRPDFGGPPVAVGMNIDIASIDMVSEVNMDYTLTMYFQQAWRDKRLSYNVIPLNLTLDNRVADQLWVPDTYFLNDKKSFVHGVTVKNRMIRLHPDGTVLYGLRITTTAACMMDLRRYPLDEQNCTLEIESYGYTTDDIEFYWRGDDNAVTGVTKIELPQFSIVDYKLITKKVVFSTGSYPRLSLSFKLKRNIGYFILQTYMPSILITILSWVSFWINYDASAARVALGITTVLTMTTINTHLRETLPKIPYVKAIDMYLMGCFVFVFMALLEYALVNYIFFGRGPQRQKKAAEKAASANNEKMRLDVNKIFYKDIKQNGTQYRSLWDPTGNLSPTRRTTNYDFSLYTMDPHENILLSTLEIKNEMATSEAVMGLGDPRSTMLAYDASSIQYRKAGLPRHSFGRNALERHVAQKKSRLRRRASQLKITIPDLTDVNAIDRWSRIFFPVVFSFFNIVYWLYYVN
T1 sequence (P18507 40-475): as the sequence (P18507 40-475) above

With `CCOC(=O)c1ncn2c1Cc1c(C)nnn1-c1cc(OC)ccc1-2` [Compound 1], the activation at 0.1 µM on GABAA receptors (α5β2γ2) lay in the range of 20 to 49%.

Take `CCOC(=O)c1ncn2c1Cc1c(C)nnn1-c1cc(F)ccc1-2` [Compound 2]: the activation at 0.1 µM at GABAA receptors (α5β2γ2) lay in the range of 20 to 49%.

On to `CCOC(=O)c1ncn2c1Cc1c(COc3ccccc3)nnn1-c1cc(OC)ccc1-2` [Compound 9], for which the activation at 0.1 µM at GABAA receptors (α5β2γ2) was 20 to 49%.

For `CCOC(=O)c1ncn2c1Cc1c(COc3cccc(OC)c3)nnn1-c1cc(OC)ccc1-2` [Compound 11], the activation at 0.1 µM at GABAA receptors (α5β2γ2) is 20 to 49%.

For the compound `CCOC(=O)c1ncn2c1Cc1c(Cc3ccc(Cl)cc3)nnn1-c1cc(F)ccc1-2` [Compound 45], the activation at 0.1 µM on GABAA receptors (α5β2γ2) lay in the range of 20 to 49%.

In turn, `CCOC(=O)c1ncn2c1Cc1c(Cc3ccc(F)cc3)nnn1-c1cc(F)ccc1-2` [Compound 46] gave a pKi in test [1] of over 7.00.

Turning to `CCOC(=O)c1ncn2c1Cc1c(CN3CCCC3)nnn1-c1cc(OC)ccc1-2` [Compound 48], the activation at 0.1 µM at GABAA receptors (α5β2γ2) was in the range of 20 to 49%.

The compound `CCOC(=O)c1ncn2c1Cc1c(Cc3ccccc3Cl)nnn1-c1cc(C)ccc1-2` [Compound 54] gave a pKi in test [1] of over 7.00.

`CCOC(=O)c1ncn2c1Cn1c(COc3ccccc3)nnc1-c1cc(OC)ccc1-2` [Compound 55]: at GABAA receptors (α5β2γ2), the activation at 0.1 µM lay within 20 to 49%.

For the compound `CCOC(=O)c1ncn2c1Cc1c(Cc3ccccc3)nnn1-c1cc(C)ccc1-2` [Compound 101], the negative-log Ki (pKi) in test [1] was over 7.00.

In the case of `CCOC(=O)c1ncn2c1Cc1c(C)nnn1-c1cc(C)ccc1-2` [Compound 102], the negative logarithm of the Ki (pKi) in test [1] was over 7.00.

Regarding `Cc1noc(-c2ncn3c2Cc2c(Cc4ccccc4)nnn2-c2cc(F)ccc2-3)n1` [Compound 109], the activation at 0.1 µM at GABAA receptors (α5β2γ2) lay within 20 to 49%.

In test [1], `Cc1cccc(C)c1OCc1nnc2n1Cc1c(-c3noc(C(C)C)n3)ncn1-c1ccc(F)cc1-2` [Compound 190] gave a pKi of over 7.00.

In test [1], `N#Cc1ncn2c1Cn1c(COc3ccccc3)nnc1-c1cc(Cl)ccc1-2` [Compound 197] gave a pKi of over 7.00.

In test [1], `COCc1nnc2n1Cc1c(-c3nc(C(C)C)no3)ncn1-c1ccc(Cl)cc1-2` [Compound 206] had a pKi of over 7.00.

In the case of `COc1ccc2c(c1)-n1nnc(Cc3ccccc3Cl)c1Cc1c(C#N)ncn1-2` [Compound 208], the pKi in test [1] is over 7.00.

Compound `COc1ccc2c(c1)-n1nnc(Cc3cccc(Cl)c3)c1Cc1c(C#N)ncn1-2` [Compound 209] gave a pKi in test [1] of over 7.00.

On to `CCOCc1nnc2n1Cc1c(Br)ncn1-c1ccc(Cl)cc1-2` [Compound 216], for which the pKi in test [1] is over 7.00.

In turn, `COCc1nnc2n1Cc1c(Br)ncn1-c1ccc(Cl)cc1-2` [Compound 217] had a pKi in test [1] of over 7.00.

Consider `C#Cc1ncn2c1Cc1c(C(=O)c3ccc(F)cc3)nnn1-c1cc(OC)ccc1-2` [Compound 218], for which the negative-log Ki (pKi) in test [1] is over 7.00.

As for `COc1ccc2c(c1)-n1nnc(COc3ccccc3F)c1Cc1c(C#N)ncn1-2` [Compound 223], in test [1], the pKi is over 7.00.

In test [1], `N#Cc1ncn2c1Cc1c(COc3cccc(F)c3)nnn1-c1cc(Cl)ccc1-2` [Compound 227] showed a pKi of over 7.00.

In test [1], `CC(C)c1nc(-c2ncn3c2Cc2c(C(=O)c4ccc(F)cc4)nnn2-c2ccc(F)cc2-3)no1` [Compound 230] had a pKi of over 7.00.

`COc1ccc2c(c1)-c1nnc(COc3ccccc3)n1Cc1c(Br)ncn1-2` [Compound 232] had a pKi in test [1] of over 7.00.

In the case of `COCc1nnc2n1Cc1c(-c3cc(C)no3)ncn1-c1ccc(Cl)cc1-2` [Compound 233], in test [1], the pKi was over 7.00.

Compound `C#CCNC(=O)c1ncn2c1Cn1c(COC)nnc1-c1cc(Cl)ccc1-2` [Compound 234] had a negative-log Ki (pKi) in test [1] of under 6.00.

Regarding `COc1ccc2c(c1)-c1nnc(COc3cccnc3)n1Cc1c(Br)ncn1-2` [Compound 235], in test [1], the pKi is over 7.00.

The compound `C#Cc1ncn2c1Cn1c(COc3ccccc3)nnc1-c1cc(OC)ccc1-2` [Compound 236] had a pKi in test [1] of over 7.00.

Turning to `C#Cc1ncn2c1Cn1c(COc3cccnc3)nnc1-c1cc(OC)ccc1-2` [Compound 241], the negative-log Ki (pKi) in test [1] is over 7.00.

With `COCc1nnc2n1Cc1c(C3=NC(c4ccccc4)CO3)ncn1-c1ccc(Cl)cc1-2` (stereo not drawn) [Compound 242], in test [1], the negative logarithm of the Ki (pKi) was over 7.00.

`COCc1nnc2n1Cc1c(-c3nc(C)co3)ncn1-c1ccc(Cl)cc1-2` [Compound 244]: in test [1], the pKi is over 7.00.

On to `COCc1nnc2n1Cc1c(-c3nc(-c4ccccc4)co3)ncn1-c1ccc(Cl)cc1-2` [Compound 245], for which the negative logarithm of the Ki (pKi) in test [1] is over 7.00.

In test [1], `COc1ccc2c(c1)-n1nncc1Cc1c(-c3nc(C)no3)ncn1-2` [Compound 258] had a pKi of over 7.00.

Consider `CCOCc1nnc2n1Cc1c(C3=NC(C)CO3)ncn1-c1ccc(Cl)cc1-2` (stereo not drawn) [Compound 259], for which the pKi in test [1] was over 7.00.

Turning to `CCOCc1nnc2n1Cc1c(C3=NC(c4ccccc4)CO3)ncn1-c1ccc(Cl)cc1-2` (stereo not drawn) [Compound 260], the pKi in test [1] is over 7.00.

On to `C#Cc1ncn2c1Cn1c(COCC)nnc1-c1cc(Cl)ccc1-2` [Compound 261], for which the pKi in test [1] is over 7.00.

`COCc1nnc2n1Cc1c(C3=N[C@H](c4ccccc4)CO3)ncn1-c1ccc(Cl)cc1-2` [Compound 263]: in test [1], the pKi is over 7.00.

`CC(C)OCc1nnc2n1Cc1c(C3=N[C@H](c4ccccc4)CO3)ncn1-c1ccc(Cl)cc1-2` [Compound 268] showed a pKi in test [1] of over 7.00.

In test [1], `CC(C)OCc1nnc2n1Cc1c(C3=N[C@@H](c4ccccc4)CO3)ncn1-c1ccc(Cl)cc1-2` [Compound 270] had a pKi of over 7.00.

For `CCOCc1nnc2n1Cc1c(C3=N[C@@H](c4ccccc4)CO3)ncn1-c1ccc(Cl)cc1-2` [Compound 275], in test [1], the pKi is over 7.00.

`CC(C)OCc1nnc2n1Cc1c(-c3nc(-c4ccccc4)co3)ncn1-c1ccc(Cl)cc1-2` [Compound 276] showed a pKi in test [1] of over 7.00.

Consider `COc1ccc2c(c1)-n1nnc(C)c1Cc1c(-c3nc(C(C)C)no3)ncn1-2` [Compound 277], for which the pKi in test [1] was over 7.00.

In test [1], `C#Cc1ccc2c(c1)-c1nnc(COC)n1Cc1c(C3=N[C@H](CC(C)C)CO3)ncn1-2` [Compound 280] gave a pKi of over 7.00.

In test [1], `COCc1nnc2n1Cc1c(C3=N[C@H](C)CO3)ncn1-c1ccc(Cl)cc1-2` [Compound 282] gave a pKi of over 7.00.

In the case of `COCc1nnc2n1Cc1c(C#Cc3ccccc3)ncn1-c1ccc(Cl)cc1-2` [Compound 285], the pKi in test [1] is over 7.00.

With `C#Cc1ncn2c1Cn1c(COC(C)C)nnc1-c1cc(Cl)ccc1-2` [Compound 288], the pKi in test [1] is over 7.00.

As for `COc1ccc2c(c1)-n1nncc1Cc1c(C3=N[C@@H](c4ccccc4)CO3)ncn1-2` [Compound 289], the pKi in test [1] is over 7.00.

`COc1ccc2c(c1)-n1nncc1Cc1c(C3=N[C@H](C)CO3)ncn1-2` [Compound 291] had a pKi in test [1] of over 7.00.

`COCc1nnc2n1Cc1c(C3=NC[C@@H](C)O3)ncn1-c1ccc(Cl)cc1-2` [Compound 294] gave a pKi in test [1] of over 7.00.

The compound `COCc1nnc2n1Cc1c(C3=NC[C@H](C)O3)ncn1-c1ccc(Cl)cc1-2` [Compound 295] had a pKi in test [1] of over 7.00.

With `COCc1nnc2n1Cc1c(-c3ncc(C)o3)ncn1-c1ccc(Cl)cc1-2` [Compound 296], the pKi in test [1] is over 7.00.

Consider `C#Cc1ccc2c(c1)-c1nnc(COC)n1Cc1c(C3=N[C@@H](c4ccccc4)CO3)ncn1-2` [Compound 301], for which the pKi in test [1] was over 7.00.

Turning to `C#Cc1ccc2c(c1)-c1nnc(COC)n1Cc1c(-c3nc(-c4ccccc4)co3)ncn1-2` [Compound 302], the pKi in test [1] is over 7.00.

`FC(F)(F)COCc1nnc2n1Cc1c(C3=N[C@@H](c4ccccc4)CO3)ncn1-c1ccc(Cl)cc1-2` [Compound 304]: the negative logarithm of the Ki (pKi) in test [1] is over 7.00.
